Assays:
[1] = target: Macrophage-stimulating protein receptor (Homo sapiens) (UniProt Q04912); conditions: Compound concentration 1000.0 nM
[2] = target: Serine/threonine-protein kinase 16 (Homo sapiens) (UniProt O75716); conditions: Compound concentration 1000.0 nM
[3] = target: Eukaryotic translation initiation factor 2-alpha kinase 1 (Homo sapiens) (UniProt Q9BQI3); conditions: Compound concentration 1000.0 nM
[4] = system: Mast/stem cell growth factor receptor Kit (Homo sapiens), P10721 [A829P]; conditions: Compound concentration 1000.0 nM
[5] = target: Platelet-derived growth factor receptor alpha (Homo sapiens) (UniProt P16234); conditions: Compound concentration 1000.0 nM
[6] = target: Cyclin-dependent kinase 17 (Homo sapiens) (UniProt Q00537); conditions: Compound concentration 1000.0 nM
[7] = system: Epidermal growth factor receptor (Homo sapiens), P00533 [UNDEFINED MUTATION]; conditions: Compound concentration 1000.0 nM
Sequence of Epidermal growth factor receptor (Homo sapiens), P00533 [UNDEFINED MUTATION] (P00533 whole entry, looked up, change not shown): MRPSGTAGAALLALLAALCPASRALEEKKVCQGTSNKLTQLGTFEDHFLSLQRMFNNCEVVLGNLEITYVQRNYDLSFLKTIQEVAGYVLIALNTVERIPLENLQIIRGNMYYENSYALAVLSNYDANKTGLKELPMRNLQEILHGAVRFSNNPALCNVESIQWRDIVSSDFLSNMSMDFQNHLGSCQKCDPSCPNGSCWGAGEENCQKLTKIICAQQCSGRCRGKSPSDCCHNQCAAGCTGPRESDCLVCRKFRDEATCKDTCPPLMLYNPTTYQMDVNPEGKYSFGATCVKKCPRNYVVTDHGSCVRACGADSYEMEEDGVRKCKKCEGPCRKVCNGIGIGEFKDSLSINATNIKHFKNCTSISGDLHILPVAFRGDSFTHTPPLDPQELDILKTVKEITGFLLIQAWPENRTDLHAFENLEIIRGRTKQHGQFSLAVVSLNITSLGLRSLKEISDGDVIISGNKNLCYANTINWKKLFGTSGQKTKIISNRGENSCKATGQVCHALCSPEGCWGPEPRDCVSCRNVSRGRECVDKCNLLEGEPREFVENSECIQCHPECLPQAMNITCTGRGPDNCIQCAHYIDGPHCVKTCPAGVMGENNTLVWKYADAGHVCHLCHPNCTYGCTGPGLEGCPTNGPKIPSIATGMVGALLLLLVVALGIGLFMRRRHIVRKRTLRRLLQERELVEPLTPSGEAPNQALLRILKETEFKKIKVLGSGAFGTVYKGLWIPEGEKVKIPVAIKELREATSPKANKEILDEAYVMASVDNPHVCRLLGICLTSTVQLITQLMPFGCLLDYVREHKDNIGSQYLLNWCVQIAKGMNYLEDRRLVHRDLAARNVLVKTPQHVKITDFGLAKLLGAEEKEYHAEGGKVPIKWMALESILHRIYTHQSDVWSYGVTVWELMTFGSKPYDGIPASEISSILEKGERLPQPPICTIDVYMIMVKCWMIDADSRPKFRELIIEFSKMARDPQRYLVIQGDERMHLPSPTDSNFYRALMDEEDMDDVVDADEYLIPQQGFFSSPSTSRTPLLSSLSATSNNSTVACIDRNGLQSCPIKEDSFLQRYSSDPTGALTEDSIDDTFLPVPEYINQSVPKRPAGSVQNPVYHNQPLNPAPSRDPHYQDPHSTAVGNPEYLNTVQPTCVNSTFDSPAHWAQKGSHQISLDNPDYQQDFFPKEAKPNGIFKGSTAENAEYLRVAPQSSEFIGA

[8] = target: Mitogen-activated protein kinase 1 (Homo sapiens) (UniProt P28482); conditions: Compound concentration 1000.0 nM
[9] = target: Ribosomal protein S6 kinase alpha-2 (Homo sapiens) (UniProt Q15349); conditions: Compound concentration 1000.0 nM
Sequence of Ribosomal protein S6 kinase alpha-2 (Homo sapiens) (Q15349 whole entry): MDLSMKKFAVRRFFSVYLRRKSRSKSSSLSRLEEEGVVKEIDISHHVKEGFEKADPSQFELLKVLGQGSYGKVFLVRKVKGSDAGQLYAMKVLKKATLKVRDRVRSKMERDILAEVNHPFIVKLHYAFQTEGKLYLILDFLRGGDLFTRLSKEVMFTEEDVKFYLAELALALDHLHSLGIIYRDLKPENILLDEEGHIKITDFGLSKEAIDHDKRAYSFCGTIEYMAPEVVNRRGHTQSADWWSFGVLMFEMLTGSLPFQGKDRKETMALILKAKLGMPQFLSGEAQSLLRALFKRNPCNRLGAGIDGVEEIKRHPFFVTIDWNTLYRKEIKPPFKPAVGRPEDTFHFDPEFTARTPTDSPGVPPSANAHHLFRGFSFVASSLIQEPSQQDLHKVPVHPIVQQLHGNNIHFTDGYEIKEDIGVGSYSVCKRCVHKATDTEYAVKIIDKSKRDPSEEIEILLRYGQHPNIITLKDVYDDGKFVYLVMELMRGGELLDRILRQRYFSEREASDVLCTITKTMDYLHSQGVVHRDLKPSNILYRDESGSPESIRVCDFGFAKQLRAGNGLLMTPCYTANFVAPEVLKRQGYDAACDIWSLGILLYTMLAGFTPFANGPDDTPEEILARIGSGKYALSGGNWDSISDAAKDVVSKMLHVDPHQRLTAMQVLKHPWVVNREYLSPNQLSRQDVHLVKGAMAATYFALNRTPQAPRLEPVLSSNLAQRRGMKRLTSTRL

[10] = system: Receptor-type tyrosine-protein kinase FLT3 (Homo sapiens), P36888 [UNDEFINED MUTATION]; conditions: Compound concentration 1000.0 nM
[11] = target: Proto-oncogene tyrosine-protein kinase ROS (Homo sapiens) (UniProt P08922); conditions: Compound concentration 1000.0 nM
[12] = target: T1, Serine/threonine-protein kinase BRSK2 (Homo sapiens) (UniProt Q8IWQ3); conditions: Compound concentration 1000.0 nM
T1 sequence (whole entry): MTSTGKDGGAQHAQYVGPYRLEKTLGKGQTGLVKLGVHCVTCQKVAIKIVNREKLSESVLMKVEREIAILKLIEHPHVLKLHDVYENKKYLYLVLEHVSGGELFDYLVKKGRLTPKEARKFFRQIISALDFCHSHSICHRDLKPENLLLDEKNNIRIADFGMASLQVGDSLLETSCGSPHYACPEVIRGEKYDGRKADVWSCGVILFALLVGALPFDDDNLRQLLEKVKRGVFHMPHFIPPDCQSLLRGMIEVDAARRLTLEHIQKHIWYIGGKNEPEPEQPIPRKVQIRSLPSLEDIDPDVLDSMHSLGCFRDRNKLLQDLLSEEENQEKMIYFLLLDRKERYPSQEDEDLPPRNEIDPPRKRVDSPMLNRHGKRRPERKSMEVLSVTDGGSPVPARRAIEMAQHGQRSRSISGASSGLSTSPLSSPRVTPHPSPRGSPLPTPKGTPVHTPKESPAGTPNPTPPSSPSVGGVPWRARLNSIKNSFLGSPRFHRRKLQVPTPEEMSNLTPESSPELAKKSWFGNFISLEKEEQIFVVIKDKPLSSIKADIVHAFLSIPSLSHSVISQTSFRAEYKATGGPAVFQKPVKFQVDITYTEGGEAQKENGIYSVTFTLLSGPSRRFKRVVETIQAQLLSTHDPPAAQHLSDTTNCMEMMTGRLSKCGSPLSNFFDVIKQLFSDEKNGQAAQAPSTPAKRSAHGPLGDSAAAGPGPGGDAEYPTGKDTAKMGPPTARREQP

[13] = target: Sigma non-opioid intracellular receptor 1 (Homo sapiens, UniProt Q99720); test: GPCRScan assay: inhibition of Sigma 1; parameters: radioligand conc. used [nm] 4.0 – 5.0, parental cells HEKT
SK-BR-3 = test: Proliferation assay: SK-BR-3 (breast cancer); type: functional, cell-based; conditions: Homo sapiens
[14] = system: Phosphatidylinositol 4,5-bisphosphate 3-kinase catalytic subunit alpha isoform (Homo sapiens), P42336 [E542K]; conditions: Compound concentration 1000.0 nM
[15] = system: Hepatocyte growth factor receptor (Homo sapiens), P08581 [M1250T]; conditions: Compound concentration 1000.0 nM
[16] = target: Cyclin-dependent kinase 5 (Homo sapiens) (UniProt Q00535); conditions: Compound concentration 1000.0 nM
[17] = target: Serine/threonine-protein kinase PAK 1 (Homo sapiens) (UniProt Q13153); conditions: Compound concentration 1000.0 nM
Sequence of Serine/threonine-protein kinase PAK 1 (Homo sapiens) (Q13153 whole entry): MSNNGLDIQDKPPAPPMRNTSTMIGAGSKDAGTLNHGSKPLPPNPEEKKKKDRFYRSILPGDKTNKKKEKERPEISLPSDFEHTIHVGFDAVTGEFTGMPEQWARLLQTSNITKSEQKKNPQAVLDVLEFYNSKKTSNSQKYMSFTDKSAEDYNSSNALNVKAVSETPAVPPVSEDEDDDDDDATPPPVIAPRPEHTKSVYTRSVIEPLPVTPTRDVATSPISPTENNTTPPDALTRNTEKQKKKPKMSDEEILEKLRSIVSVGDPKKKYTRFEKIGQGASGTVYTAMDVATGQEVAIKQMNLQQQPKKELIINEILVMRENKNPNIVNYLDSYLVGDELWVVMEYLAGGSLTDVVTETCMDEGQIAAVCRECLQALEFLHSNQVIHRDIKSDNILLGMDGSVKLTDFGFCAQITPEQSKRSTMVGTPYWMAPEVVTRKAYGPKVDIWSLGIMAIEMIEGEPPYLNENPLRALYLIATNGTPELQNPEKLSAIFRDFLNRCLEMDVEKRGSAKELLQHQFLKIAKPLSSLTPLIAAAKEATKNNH

[18] = target: Cyclin-dependent kinase-like 1 (Homo sapiens) (UniProt Q00532); conditions: Compound concentration 1000.0 nM
Sequence of Cyclin-dependent kinase-like 1 (Homo sapiens) (Q00532 whole entry): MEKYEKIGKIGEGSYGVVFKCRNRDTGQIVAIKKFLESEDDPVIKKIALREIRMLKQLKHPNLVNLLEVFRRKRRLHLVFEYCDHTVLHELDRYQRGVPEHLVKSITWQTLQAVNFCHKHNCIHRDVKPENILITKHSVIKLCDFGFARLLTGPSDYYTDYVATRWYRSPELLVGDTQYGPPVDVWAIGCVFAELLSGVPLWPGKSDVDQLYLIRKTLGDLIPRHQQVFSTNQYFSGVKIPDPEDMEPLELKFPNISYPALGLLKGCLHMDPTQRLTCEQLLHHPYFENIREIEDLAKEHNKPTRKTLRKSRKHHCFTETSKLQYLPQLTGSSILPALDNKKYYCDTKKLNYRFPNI

[19] = target: Interleukin-1 receptor-associated kinase 1 (Homo sapiens) (UniProt P51617); conditions: Compound concentration 1000.0 nM
[20] = target: Angiopoietin-1 receptor (Homo sapiens) (UniProt Q02763); conditions: Compound concentration 1000.0 nM
Sequence of Angiopoietin-1 receptor (Homo sapiens) (Q02763 whole entry): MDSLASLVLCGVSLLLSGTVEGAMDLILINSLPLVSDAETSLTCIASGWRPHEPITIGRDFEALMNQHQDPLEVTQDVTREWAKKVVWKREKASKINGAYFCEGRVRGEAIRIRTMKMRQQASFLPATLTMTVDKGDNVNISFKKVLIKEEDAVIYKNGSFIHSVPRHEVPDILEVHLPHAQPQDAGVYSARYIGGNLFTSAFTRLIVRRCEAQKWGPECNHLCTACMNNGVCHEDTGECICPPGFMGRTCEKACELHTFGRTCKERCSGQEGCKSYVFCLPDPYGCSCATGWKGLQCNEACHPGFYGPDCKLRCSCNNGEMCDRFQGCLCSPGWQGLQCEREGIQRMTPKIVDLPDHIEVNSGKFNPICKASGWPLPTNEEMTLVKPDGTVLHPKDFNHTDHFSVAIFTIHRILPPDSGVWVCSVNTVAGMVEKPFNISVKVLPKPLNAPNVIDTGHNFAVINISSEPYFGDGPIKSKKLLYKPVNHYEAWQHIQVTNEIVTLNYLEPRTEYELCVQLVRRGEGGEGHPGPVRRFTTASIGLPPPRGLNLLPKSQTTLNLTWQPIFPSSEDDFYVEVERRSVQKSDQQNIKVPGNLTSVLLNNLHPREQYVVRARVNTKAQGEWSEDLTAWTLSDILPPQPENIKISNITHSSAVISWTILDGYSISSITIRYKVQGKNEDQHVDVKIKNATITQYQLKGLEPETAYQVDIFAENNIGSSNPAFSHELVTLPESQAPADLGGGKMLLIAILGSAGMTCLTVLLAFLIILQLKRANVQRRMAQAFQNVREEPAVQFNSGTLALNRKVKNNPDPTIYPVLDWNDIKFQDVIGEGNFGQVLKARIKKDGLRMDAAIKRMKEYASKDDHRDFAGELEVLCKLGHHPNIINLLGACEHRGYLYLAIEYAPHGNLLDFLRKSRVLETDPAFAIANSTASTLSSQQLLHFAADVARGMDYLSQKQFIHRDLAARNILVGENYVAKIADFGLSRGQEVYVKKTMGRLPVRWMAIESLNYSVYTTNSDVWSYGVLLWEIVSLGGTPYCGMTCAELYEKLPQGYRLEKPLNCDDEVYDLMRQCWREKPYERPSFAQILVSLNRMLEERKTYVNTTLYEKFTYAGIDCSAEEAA

[21] = target: Calcium/calmodulin-dependent protein kinase type II subunit beta (Homo sapiens) (UniProt Q13554); conditions: Compound concentration 1000.0 nM
[22] = target: Muscarinic acetylcholine receptor M2 (Homo sapiens) (UniProt P08172); conditions: Compound concentration 10.0 uM
[23] = target: T2, Mitogen-activated protein kinase kinase kinase 7 (Homo sapiens) (UniProt O43318); conditions: Compound concentration 1000.0 nM
T2 sequence (whole entry): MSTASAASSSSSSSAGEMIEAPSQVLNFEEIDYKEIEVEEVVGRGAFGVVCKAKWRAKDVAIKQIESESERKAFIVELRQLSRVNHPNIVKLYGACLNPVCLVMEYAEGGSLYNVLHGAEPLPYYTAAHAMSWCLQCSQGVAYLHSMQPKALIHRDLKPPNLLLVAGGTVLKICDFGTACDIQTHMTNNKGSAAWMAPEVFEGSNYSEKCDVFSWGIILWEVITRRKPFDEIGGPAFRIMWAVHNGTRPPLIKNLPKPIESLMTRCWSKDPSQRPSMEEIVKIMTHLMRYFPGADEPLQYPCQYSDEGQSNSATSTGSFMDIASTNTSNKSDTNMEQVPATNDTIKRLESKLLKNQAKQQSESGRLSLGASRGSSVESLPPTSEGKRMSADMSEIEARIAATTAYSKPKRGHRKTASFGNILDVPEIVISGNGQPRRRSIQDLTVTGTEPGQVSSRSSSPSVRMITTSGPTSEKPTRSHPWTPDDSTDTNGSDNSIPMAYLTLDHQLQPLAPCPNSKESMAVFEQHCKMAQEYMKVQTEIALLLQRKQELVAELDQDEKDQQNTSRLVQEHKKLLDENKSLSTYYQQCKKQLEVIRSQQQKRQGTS

[24] = target: Cytoplasmic tyrosine-protein kinase BMX (Homo sapiens) (UniProt P51813); conditions: Compound concentration 1000.0 nM
[25] = target: Serine/threonine-protein kinase B-raf (Homo sapiens) (UniProt P15056); conditions: Compound concentration 1000.0 nM

Sequence of Eukaryotic translation initiation factor 2-alpha kinase 1 (Homo sapiens) (Q9BQI3 whole entry): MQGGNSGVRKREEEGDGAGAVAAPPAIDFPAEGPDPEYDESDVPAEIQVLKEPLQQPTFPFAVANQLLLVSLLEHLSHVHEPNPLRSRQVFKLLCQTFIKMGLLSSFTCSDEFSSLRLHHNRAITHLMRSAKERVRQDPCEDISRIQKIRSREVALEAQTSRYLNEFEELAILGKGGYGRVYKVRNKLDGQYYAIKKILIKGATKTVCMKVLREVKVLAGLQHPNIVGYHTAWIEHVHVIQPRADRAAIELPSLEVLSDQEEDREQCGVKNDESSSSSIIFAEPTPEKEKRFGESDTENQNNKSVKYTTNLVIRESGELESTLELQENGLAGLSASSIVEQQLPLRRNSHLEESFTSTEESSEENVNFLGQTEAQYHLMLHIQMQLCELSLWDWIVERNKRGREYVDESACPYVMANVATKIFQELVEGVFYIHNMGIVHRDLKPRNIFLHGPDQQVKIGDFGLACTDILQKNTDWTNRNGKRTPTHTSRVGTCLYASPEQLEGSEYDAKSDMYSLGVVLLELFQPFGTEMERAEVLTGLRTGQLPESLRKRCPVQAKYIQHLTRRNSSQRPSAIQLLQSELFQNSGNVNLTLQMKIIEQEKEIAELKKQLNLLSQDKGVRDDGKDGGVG
Sequence of Serine/threonine-protein kinase 16 (Homo sapiens) (O75716 whole entry): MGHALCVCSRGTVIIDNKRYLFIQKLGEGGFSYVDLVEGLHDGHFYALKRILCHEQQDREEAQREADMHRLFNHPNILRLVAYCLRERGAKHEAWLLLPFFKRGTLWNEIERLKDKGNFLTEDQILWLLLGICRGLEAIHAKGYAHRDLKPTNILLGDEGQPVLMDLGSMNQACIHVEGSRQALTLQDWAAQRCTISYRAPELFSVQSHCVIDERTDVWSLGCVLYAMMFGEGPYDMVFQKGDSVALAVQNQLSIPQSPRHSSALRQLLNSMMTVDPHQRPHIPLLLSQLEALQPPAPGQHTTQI

SMILES | residual activity [1] [%] | residual activity [2] [%] | residual activity [3] [%] | residual activity [4] [%] | residual activity [5] [%] | residual activity [6] [%] | residual activity [7] [%] | residual activity [8] [%] | residual activity [9] [%] | residual activity [10] [%] | residual activity [11] [%] | residual activity [12] [%] | Ki [13] [nM] | IC50 (SK-BR-3) | residual activity [14] [%] | residual activity [15] [%] | residual activity [16] [%] | residual activity [17] [%] | residual activity [18] [%] | residual activity [19] [%] | further results
Cc1nc(C2CCN(C(=O)c3ccc(OC(F)(F)F)cc3N)CC2)c2ncc(N3CCN(C)CC3)cc2n1 [BAY-693] | 82 | 100 | 85 | 86 | 100 | 88 | 100 | 98 | 100 | 100 | 92 | 100 | 2370 | 22400 nM (not active) | 92 | 97 | 88 | 100 | 89 | 100 | residual activity [20]: 81%; residual activity [21]: 100%; inhibition [22]: -1%; residual activity [23]: 100%; residual activity [24]: 100%; residual activity [25]: 100%
CN1CCN(c2cnc3c(C4CCN(C(=O)c5ccc(OC(F)(F)F)cc5N)CC4)ncnc3c2)CC1 [BAY-885] | 90 | 100 | 100 | 100 | 100 | 93 | 100 | 94 | 100 | 88 | 100 | 100 | 2500 | > 30000 nM (not active) | 100 | 100 | 87 | 93 | 94 | 100 | residual activity [20]: 74%; residual activity [21]: 100%; inhibition [22]: -0.56%; residual activity [23]: 100%; residual activity [24]: 100%; residual activity [25]: 100%
